From patent US9157909B2, “Male reproductive health panel and uses thereof” (priority 2007, dated 2015)
Like-named read-outs stand apart in the source and are kept apart here.

Assays:
human sperm [1] = system: human sperm
Procedure: (§1) In vitro oxidative stress exposure; human sperm from a fertile […] were exposed to increasing hydrogen peroxide (H2O2) concentrations (0, 10, 50 and 100 μM), and incubated at 37° C., for 15 min and 1 hr.
(§2) Sperm was isolated from the seminal plasma as previously described in Brown et al. 1995. The sperm pellet was resuspended in phosphate buffered saline (PBS), pH=7.4, and divided into 4 aliquots. Each aliquot (equal sperm concentrations) was incubated at 37° C. in PBS with H2O2 concentrations of 0, 10, 50, and 100 μM for 15 min and 1 hr. All aliquots were divided into 2 portions. One portion was used to determine LPO.
(§3) The remaining portion was centrifuged at 1500 g for 15 min at room temperature. The pellet was analyzed in the HSAA.
Sperm chromatin decondensation and nuclear recondensation were evaluated in sperm exposed to increasing concentrations of H2O2 for 15 min and 1 hr using the HSAA. Sperm were analyzed at different incubation times in the egg extract using the image analysis Methamorph software system. The sperm nuclear activation was scored in 5 categories: 1) full decondensation: sperm diameter 25-30 μm, 2) partial decondensation: sperm diameter<25 μm, 3) non-decondensed, 4) hyperdecondensed: sperm diameter>(25-30 μm), and full recondensation.

human sperm [2] = conditions: for sperm heavily labeled by ^3H-TTP incorporation: incubation not printed (15 min implied)
Procedure: FIG. 3: HSAA—The effect of oxidative stress on DNA synthesis. Pictorial representation of autoradiographs of control untreated sperm (A-E) and sperm exposed to 100 μM H2O2 for 1 hr (a-e) assayed in the HSAA in the presence of ^3H-TTP. All the pictures were photographed using bright microscopy 60× objective. […] All pictures were printed at the same magnification.
as §1, §2, §3

human sperm [3] = conditions: 50 and 100 μM H2O2 (15 min); 10, 50 and 100 μM H2O2 (1 hr)
Procedure: as §2

sperm [4] = conditions: comet assay, direct exposure of sperm; cited from earlier work
human sperm [5] = test: HSAA of sperm exposed to ROS from PMA-activated PMNL with or without Trolox; type: cell-based
Procedure: PMNLs were isolated from blood of healthy donors by density gradient centrifugation. Activation and the number of peroxidase-positive leukocytes were determined using the Endtz test. Sperm from fertile males were isolated using percoll gradients (40 and 80%). Sperm from the 80% fraction was divided into 6 aliquots: 1) control non-treated sperm, 2) sperm treated with ROS inducer phorbol-12 myristate-13 acetate (PMA), 3) non-treated sperm with non-treated PMNL, 4) sperm with PMA treated PMNL, 5) sperm with PMA treated PMNL plus Trolox 40 μM, and 6) non-treated sperm plus Trolox 40 μM. Following an incubation period, sperm were evaluated for (A) sperm activation events in the HSAA, evaluating sperm activation events (decondensation, DNA synthesis, and recondensation) at 15 min, and 2 hr, and (B) determining ROS levels via nitroblue of tetrazolium (NBT) and spectrophotometry.

sperm [6] = conditions: sperm exposed to hydroxylamine, analyzed in the HSAA; cited from earlier work
[7] = Trolox 40 μM with PMA treated PMNL (oxidative stress)

Q: For OO [H2O2, hydrogen peroxide], which hyper-decondensed sperm (human sperm [1]; 10 μM H2O2, 2 and 3 hr incubation in egg extract (results combined)) is on record?
A: No sperm were hyper-decondensed

Q: What about the “recondensation appearance (FIG. 3d, e)” value (human sperm [1]; 100 μM H2O2, 1 hr exposure, 2 and 3 hr incubation in egg extract) of the same compound?
A: irregular recondensation

Q: And the recondensed sperm (human sperm [1]; 10 and 50 μM H2O2, 15 min exposure, 15 min incubation in egg extract)?
A: No recondensed sperm were observed

Q: What about the non-decondensed sperm (human sperm [1]; other concentrations (50 and 100 μM H2O2), any exposure time point, 15 min incubation in egg extract) of the same compound?
A: no sperm were non-decondensed

Q: And the “^3H-TTP incorporation (autoradiography)” value (human sperm [2]; 10 μM H2O2, 15 min and 1 hr exposure, 2 and 3 hr incubations in egg extract)?
A: normal ^3H-TTP incorporation

Q: And the “^3H-TTP incorporation (autoradiography)” value (human sperm [2]; 10 μM H2O2, 15 min and 1 hr exposure, 5 and 15 min incubations in egg extract)?
A: no incorporation of ^3H-TTP

Q: And the “heavily labeled sperm (^3H-TTP)” value (human sperm [2]; 10 μM H2O2, 15 min and 1 hr exposures, 3 hr incubation in egg extract)?
A: 98±2%

Q: And the “sperm positive for ^3H-TTP incorporation” value (human sperm [2]; 10 μM H2O2, 15 min and 1 hr exposures, incubation time not printed (15 min in egg extract implied))?
A: No sperm were positive

Q: And the “sperm positive for ^3H-TTP incorporation” value (human sperm [2]; 10 μM H2O2, 5 min incubation in egg extract per heading (sentence prints 15 min extract incubation))?
A: No sperm were positive

Q: What about the “sperm heavily labeled by ^3H-TTP incorporation” value (“sperm heavily labeled” below) (human sperm [2]; 50 μM H2O2, 15 min exposure) of the same compound?
A: 10±2%

Q: What about the “sperm heavily labeled” value (human sperm [2]; 100 μM H2O2, 15 min exposure) of the same compound?
A: 50±5%

Q: And the “onset of DNA synthesis (autoradiograph, FIG. 3b)” value (human sperm [2]; 100 μM H2O2, 1 hr exposure, 5 min incubation in egg extract)?
A: early initiation of DNA synthesis

Q: What about the “onset of DNA synthesis (autoradiograph, FIG. 3c)” value (human sperm [2]; 100 μM H2O2, 1 hr exposure, 15 min incubation in egg extract) of the same compound?
A: early initiation of DNA synthesis

Q: What about the “sperm heavily labeled” value (human sperm [2]; 100 μM H2O2, 1 hr exposure) of the same compound?
A: 45±9%

Q: And the “^3H-TTP incorporation (autoradiography)” value (human sperm [2]; 50 and 100 μM H2O2, 15 min and 1 hr exposure)?
A: abnormal ^3H-TTP incorporation

Q: And the “LPO (amount of MDA and hydroxyalkenals), means compared to untreated control sperm” value (human sperm [3])?
A: significantly different

Q: And the “H2O2 concentration at which induction of DNA fragmentation was significant” value (sperm [4])?
A: 200 µM

Q: Which decondensation response (human sperm [5]; [7]) does the source give for Cc1c(C)c2c(c(C)c1O)CCC(C)(C(=O)O)O2 (stereo not shown) [Trolox, 6-Hydroxy-2,5,7,8-tetramethylchroman-. 2-carboxylic acid] here?
A: improved responses in decondensation

Q: What about the “early ^3H-TTP incorporation” value (human sperm [5]; [7]) of the same compound?
A: no early ^3H-TTP incorporation

Q: And the “sperm having recondensed chromatin” value (human sperm [5]; Trolox 40 μM with PMA treated PMNL, 2 hr time point, only 57% without Trolox)?
A: 78%

Q: For NO [hydroxylamine], which “onset of DNA synthesis” value (sperm [6]) is on record?
A: early initiation of DNA synthesis

Q: What about the sperm decondensation response (sperm [6]) of the same compound?
A: minimal decondensation
